Measurements reported in BindingDB's records for patent US20250084074 (Merck Patent, 2025).

molecular target: T1, Kinesin-like protein KIFC1 (Homo sapiens, UniProt Q9BW19); assay: Inhibitory Activities Against HSET-HSET ADP-Glo Assay
T1 sequence (Q9BW19 whole entry): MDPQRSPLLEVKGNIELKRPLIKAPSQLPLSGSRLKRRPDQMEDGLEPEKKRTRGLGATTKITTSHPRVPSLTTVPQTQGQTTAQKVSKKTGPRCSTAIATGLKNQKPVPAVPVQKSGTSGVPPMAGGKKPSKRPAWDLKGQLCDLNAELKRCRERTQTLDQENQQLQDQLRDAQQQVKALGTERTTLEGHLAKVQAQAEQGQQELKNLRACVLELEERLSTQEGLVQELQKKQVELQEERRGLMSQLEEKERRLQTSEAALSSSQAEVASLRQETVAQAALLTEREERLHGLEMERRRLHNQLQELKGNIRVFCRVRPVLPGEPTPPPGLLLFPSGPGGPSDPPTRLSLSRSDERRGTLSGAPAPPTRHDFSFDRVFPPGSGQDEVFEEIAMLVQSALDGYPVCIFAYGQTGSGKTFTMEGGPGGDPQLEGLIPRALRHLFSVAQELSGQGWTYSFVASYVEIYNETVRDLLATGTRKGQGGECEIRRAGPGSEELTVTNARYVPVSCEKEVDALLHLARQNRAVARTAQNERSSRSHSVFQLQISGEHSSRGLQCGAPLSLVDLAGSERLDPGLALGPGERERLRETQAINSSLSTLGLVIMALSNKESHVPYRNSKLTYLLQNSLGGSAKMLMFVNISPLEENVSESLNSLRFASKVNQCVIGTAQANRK
Description: Reagents: (+4° C. Storage)Paclitaxel Prod.No.TXD.01 2 mM in DMSO (from Universal Biologicals Cambridge).Tubulin Protein (Pre-formed Microtubules): Bovine Brain Prod.No.MT001-XL Lot.025 10 mg/mL (from Universal Biologicals Cambridge).Reagents: (−80° C. Storage)MT001-XL—Tubulin Protein (Pre-formed Microtubules): Bovine Brain—reconstituted in buffer—15 mM PIPES pH7, 1 mM MgCl2, 20 μM paclitaxel (aliquots at 10 mg/mL) from Universal Biologicals Cambridge.HSET full length protein—Current batch is FL HSET Prep1 (SEQ-000096_002-01_01)Buffer is 20 mM Hepes pH 7.5, 200 mM NaCl, 2 mM TCEP, 5% glycerol (5 μL aliquots at 10.2 μM)Reagents: (−20° C. Storage)ADP-Glo Kinase Assay kit (Promega Prod.No.V9102) 10,000 assay pointsADP-Glo reagent (50 mL), Kinase Detection Reagent (100 mL), and Ultrapure ATP (10 mM) aliquotedBuffer Stocks (filtered and stored at rt for up to 1 month)HEPES acid, 4-(2-Hydroxyethyl)piperazine-1-ethanesulfonic acid MW:238, 238.3 mg/mL=1 M7149 mg/30 mL=1M (pH to 6.8 with 5 M NaOH)PIPES, 1,4-Piperazinediethanesulfonic acid MW: 302.4, 30.24 mg/mL=100 mM; 907.2 mg/30 mL=100 mM (pH to 7 with 5 M NaOH, white cloudy suspension until the pH changes)EGTA, Ethylene glycol-bis(2-aminoethylether)-N,N,N′,N′-tetraacetic acid MW: 380.35, 38.035 mg/mL=100 mM1901.75 mg/50 mL=100 mM (pH to ˜7 with 5 M NaOH)—takes a long time to get into solution and for pH to stabilizeTriton-X-100, MW: 625, 62.5 mg/mL=100 mM (6.25% w/v) (viscous, pipette Triton X-100 with a Gilson using a trimmed pipette tip)ECHO ProtocolCreate an ECHO intermediate plate by adding 24.5 μL DMSO to columns 1 & 2, and 40 μL DMSO to columns 23 & 24 of an ECHO 384PP plateAdd 100 nL of compound/DMSO per well in 384-well Proxi-Plate Plus (white) —Perkin Elmer Cat #6008289 using ECHO dose response protocol 100 nL normal to Assay buffer (Keep on ice): HEPES pH 6.8, MgCl2, EGTA, Triton X-100, DTT, HPLC H2O Microtubule Working Solution (3.2):1 ml PM buffer: PIPES pH 7.0, MgCl2, HPLC H2O, Paclitaxel, mix well, store at rtThen add 26.4 μL of 10 mg/ml microtubules to 724 μL of the above PM buffer to make 750 μL of microtubule working solution @350 μg/mL microtubules (store at rt)Stock HSET enzyme solution (3.1)—keep on iceAdd 1.33 μL 10.2 μM HSET Prepi (SEQ-000096_002-01_01) to 1358 μL assay buffer to make a 10 nM stock for a 5 nM final assay concentration (1/1020 dilution).HSET/Microtubule working solution (3.3)Mix solutions 3.1 and 3.2 in the ratio of 2.5:1 (1214.3 μL 3.1+485.7 μL 3.2) keep at rt for 15 min3.2 is diluted 3.5-fold, 3.1 is diluted 1.4-fold BLANK solution is 357 μL 2XAB+143 μL microtubule working solution 3.2. (Same proportions as HSET/Microtubule working solution (3.3))ATP Working solution is 1 μL 10 mM UltraPure ATP (Promega kit)+999 μL ddH20 gives 10 μM ATP for a 3 μM final assay concentration, stored on ice.Assay procedure in PROXIPLATE 384 PLUS WHITE (Perkin Elmer) plates (Remove 2.4 mL ADP Glo and 4.5 mL Kinase detection reagent from freezer to warm up to rt)Add 3.5 μL BLANK solution to assay plate (column 12)Add 3.5 μL HSET/Microtubule solution (3.3) (columns 1-11 & 13-24)Centrifuge at 1000 rpm for 1 min(pre-incubate enzyme and compound for 10 min)Add 1.5 μL of 10 μM ATP to start reaction gives a final [HSET] of 5 nM, [ATP] of 3 μM and [microtubule] of 70 μg/mL, centrifuge at 1000 rpm for 1 min and incubated at rt for 80 min.After the 80-minute incubation, stop reaction by adding 5 μL ADP-Glo reagent to all wells. Centrifuge for 1 min at 1000 rpm, leave for 40 min at rt.In the dark/away from direct light, add 10 μL Kinase Detection Reagent (KDR) to all wells, Seal plate with a Topseal (Perkin Elmer Cat #6050185) and centrifuge as above, leave for 40 min at rt covered in foil.

Structure (SMILES) | IC50
CCc1nc(NC(=O)[C@@H](N)CNC(=O)c2cccc(-c3noc(C)n3)c2)sc1C(C)(C)C [US20250084074, Example 161] | 2150 nM
CCCOC(=O)c1sc(NC(=O)[C@@H](N)CNC(=O)c2cccc(-c3noc(C)n3)c2)nc1C [US20250084074, Example 160] | 54 nM
Cc1nnn(-c2ccc3ccnc(NCCC(=O)Nc4nc(C)c(C(C)(C)C)s4)c3c2)n1 [US20250084074, Example 58] | 14 nM
Cc1nc(-c2cccc(C(=O)NCCC(=O)Nc3cnn(C(=O)OC(C)(C)C)c3)c2)no1 [US20250084074, Example 274] | 6400 nM
Cc1nc(NC(=O)CCNc2nccc3c(F)cc(C#N)cc23)sc1C(C)(C)C [US20250084074, Example 53] | 240 nM
Cc1nc(-c2ccc3ccnc(N[C@H]4C[C@@H](C(=O)Nc5nc(C)c(Br)s5)C4)c3c2)no1 [US20250084074, Example 97] | 1150 nM

Further compounds by falling IC50, results first:

IC50 | Structure (SMILES)
3080 nM | CCCOC(=O)c1sc(C(=O)N2CC[C@@H](NC(=O)c3cccc(-c4noc(C)n4)c3)C2)nc1C [US20250084074, Example 241]
2160 nM | Cc1nc(-c2cccc(C(=O)NCCC(=O)Nc3nc(C)c(C(F)(F)F)s3)c2)no1 [US20250084074, Example 139]
1600 nM | Cc1nc(NC(=O)CCNc2nccc3ccc(C#N)cc23)sc1C1(C(F)(F)F)CC1 [US20250084074, Example 51]
199 nM | Cc1nc(NC(=O)CCNc2nccc3ccc(C#N)cc23)sc1C(C)(C)C [US20250084074, Example 50]
78 nM | Cc1nc(-c2ccc3ccnc(NCCC(=O)Nc4nc(C)c(C(C)(C)C)s4)c3c2)no1 [US20250084074, Example 75]
67 nM | CCCc1nc(-c2cnc(NC(=O)CCNc3nccc4ccc(-c5noc(C)n5)cc34)s2)no1 [US20250084074, Example 119]
